# Experimental data from ChEMBL document CHEMBL5126621, “Modifying a Hydroxyl Patch in Glucagon-like Peptide 1 Produces Biased Agonists with Unique Signaling Profiles” (J Med Chem, 2022).
# Calls of active or inactive are those of the source. The calls are words filed in the database; no cut-off is given here. Where a SMILES comes first, the peptide text is derived from it. [ ]: non-standard residue; d: D form. Abu = CC[C@H](N)C(=O)O
# Legend:
# [1] = molecular target: T1, Glucagon-like peptide 1 receptor (Homo sapiens, UniProt P43220); test: Agonist activity at human GLP-1R expressed in CHO cells coexpressing GFP assessed as receptor internalization at 10 uM by confocal fluorescence microscopy; type: functional, cell-based; conditions: filed as agonist
# T1 sequence (P43220 whole entry): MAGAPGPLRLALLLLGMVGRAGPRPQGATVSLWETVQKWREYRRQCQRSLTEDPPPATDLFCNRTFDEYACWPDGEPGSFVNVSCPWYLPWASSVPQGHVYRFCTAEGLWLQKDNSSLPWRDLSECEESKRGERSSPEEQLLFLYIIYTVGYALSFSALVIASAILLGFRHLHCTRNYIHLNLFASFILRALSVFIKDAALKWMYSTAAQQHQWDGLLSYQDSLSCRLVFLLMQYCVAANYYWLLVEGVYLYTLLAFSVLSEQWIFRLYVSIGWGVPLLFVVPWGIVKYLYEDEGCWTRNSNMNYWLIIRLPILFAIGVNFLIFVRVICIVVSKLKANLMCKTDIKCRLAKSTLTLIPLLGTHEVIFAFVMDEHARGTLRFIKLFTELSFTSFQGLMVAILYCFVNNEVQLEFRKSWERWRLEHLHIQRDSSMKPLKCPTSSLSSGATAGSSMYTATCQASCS
# [2] = molecular target: T1, Glucagon-like peptide 1 receptor; test: Agonist activity at human GLP-1R expressed in CHO cells coexpressing GFP assessed as increase in glucagon-like peptide 1-induced receptor internalization at 10 uM by confocal fluorescence microscopy; type: functional, cell-based; conditions: filed as agonist, time 30.0 min
# [3] = molecular target: T1, Glucagon-like peptide 1 receptor; test: Receptor residence time at human GLP-1R expressed in CHO cells coexpressing beta-arrestin-2 assessed as inhibition of glucagon-like peptide 1-induced calcium mobilization by measuring half life at 100 uM preincubated for 30 mins followed by glucagon-like peptide 1 addition measured upto 4 hrs by calcium mobilization assay; type: functional, cell-based; conditions: filed as agonist
# [4] = Drug uptake in human GLP-1R expressed in CHO cells coexpressing GFP assessed as drug internalization at 100 nM incubated for 30 mins by inverted microscopic analysis; type: ADME, cell-based, Cricetulus griseus; conditions: chinese hamster, 0.5 h, 0.1 µM
# INS1 = test: Induction of glucose-stimulated insulin secretion in rat INS1 cells measured after 1 to 16 hrs by HTRF assay; type: functional, cell-based; conditions: dose 10-1e+07 pM, time lower 1.0 hrs, time upper […], DDE = dose-dependent effect
# Mus musculus [5] = test: Reduction in blood glucose level in intraperitoneal glucose injected C57BL/6J mouse at 0.1 mg/kg, ip administered as single dose measured 20 to 60 mins by glucose tolerance test; type: functional, organism-based; conditions: time 20-60 min
# Mus musculus [6] = test: Reduction in blood glucose level in intraperitoneal glucose injected C57BL/6J mouse by measuring glucose area under curve at 0.1 mg/kg, ip administered as single dose measured in 90 mins by glucose tolerance test; type: functional, organism-based
# Mus musculus [7] = test: Induction of plasma insulin level in C57BL/6J mouse assessed as increase in insulin level at 0.1 mg/kg, ip administered as single dose measured at 10 mins in presence of glucose; type: functional, organism-based
# [8] = molecular target: T1, Glucagon-like peptide 1 receptor; test: Binding affinity to human GLP-1R expressed in CHO cells coexpressing beta-arrestin-2 assessed as fold increase in affinity incubated for 1 hr in presence of N-(tert-butyl)-6,7-dichloro-3-(methylsulfonyl)quinoxalin-2-amine by time-resolved fluorescence assay; type: cell-based
# [9] = molecular target: T1, Glucagon-like peptide 1 receptor
# [10] = molecular target: T1, Glucagon-like peptide 1 receptor; remark: listed apart in the source
# Description: Agonist activity at human GLP-1R expressed in CHO cells coexpressing beta-arrestin-2 assessed as reduction in cAMP accumulation incubated for 2 hrs under dark condition by LANCE cAMP assay
# [11] = molecular target: T1, Glucagon-like peptide 1 receptor; remark: listed apart in the source
# Description: Agonist activity at human GLP-1R expressed in CHO cells coexpressing beta-arrestin-2 assessed as stimulation intracellular calcium mobilization measured after 180 secs by Fluo-3-AM dye based fluorescence assay
# [12] = molecular target: T1, Glucagon-like peptide 1 receptor; remark: listed apart in the source
# Description: Agonist activity at human GLP-1R assessed as increase in ERK1/2 phosphorylation at Thr202/Tyr204 residues incubated for 20 mins by AlphaLISA assay
# [13] = molecular target: T1, Glucagon-like peptide 1 receptor; remark: listed apart in the source
# Description: Agonist activity at human GLP-1R expressed in CHO cells coexpressing beta-arrestin-2 assessed as increase in beta arrestin-2 recruitment incubated for 1 hr by chemiluminescence based pathHunter assay
Activity [1],Activity [2],T1/2 [3],Drug uptake [4],fold change (FC) [8],IC50 [9],EC50 [10],EC50 [11],EC50 [12],EC50 [13],Molecule,Activity (INS1),Activity (Mus musculus [5]),Activity (Mus musculus [6]),Activity (Mus musculus [7])
Active,Active,,,,,,,,,CC(C)(C)Nc1nc2cc(Cl)c(Cl)cc2nc1S(C)(=O)=O,,,,
,,4 h,Active,10,251 nM,0.0398 nM,> 100000 nM,> 100000 nM,> 10000 nM,H-HAEGAFTADVAAYLEGQAAKEFIAWLVKGR-NH2,Dde,Active,Active,Active
,,,Active,,251 nM,0.00501 nM,794 nM,> 10000 nM,158 nM,H-HAEGTFTADVAAYLEGQAAKEFIAWLVKGR-NH2,,Active,Active,Active
Active,Active,,,,,,,,,CC[S+]([O-])c1nc(-c2cccc(OCc3ccccc3)c2)cc(C(F)(F)F)n1 (stereo unspecified),,,,
,,,,,398 nM,5.01 nM,> 100000 nM,> 10000 nM,> 10000 nM,CC[C@H](NC(=O)[C@H](CC)NC(=O)[C@@H](NC(=O)[C@H](CC(=O)O)NC(=O)[C@H](CC)NC(=O)[C@@H](NC(=O)[C@H](Cc1ccccc1)NC(=O)[C@@H](NC(=O)CNC(=O)[C@H](CCC(=O)O)NC(=O)[C@H](C)NC(=O)[C@@H](N)Cc1c[nH]cn1)C(C)C)[C@@H](C)O)C(C)C)C(=O)N[C@@H](Cc1ccc(O)cc1)C(=O)N[C@@H](CC(C)C)C(=O)N[C@@H](CCC(=O)O)C(=O)NCC(=O)N[C@@H](CCC(N)=O)C(=O)N[C@@H](C)C(=O)N[C@@H](C)C(=O)N[C@@H](CCCCN)C(=O)N[C@@H](CCC(=O)O)C(=O)N[C@@H](Cc1ccccc1)C(=O)N[C@H](C(=O)N[C@@H](C)C(=O)N[C@@H](Cc1c[nH]c2ccccc12)C(=O)N[C@@H](CC(C)C)C(=O)N[C@H](C(=O)N[C@@H](CCCCN)C(=O)NCC(=O)N[C@@H](CCCNC(=N)N)C(N)=O)C(C)C)[C@@H](C)CC (H-HAEGVFT[Abu]DV[Abu][Abu]YLEGQAAKEFIAWLVKGR-NH2),,,,

Molecule,Activity [1],Activity [2],T1/2 [3],Drug uptake [4],fold change (FC) [8],IC50 [9],EC50 [10],EC50 [11],EC50 [12],EC50 [13],Activity (INS1),Activity (Mus musculus [5]),Activity (Mus musculus [6]),Activity (Mus musculus [7])
CC[C@H](C)[C@H](NC(=O)[C@H](Cc1ccccc1)NC(=O)[C@H](CCC(=O)O)NC(=O)[C@H](CCCCN)NC(=O)[C@H](C)NC(=O)[C@H](C)NC(=O)[C@H](CCC(N)=O)NC(=O)CNC(=O)[C@H](CCC(=O)O)NC(=O)[C@H](CC(C)C)NC(=O)[C@H](Cc1ccc(O)cc1)NC(=O)[C@H](CO)NC(=O)[C@H](CO)NC(=O)[C@@H](NC(=O)[C@H](CC(=O)O)NC(=O)[C@H](CO)NC(=O)[C@@H](NC(=O)[C@H](Cc1ccccc1)NC(=O)[C@@H](NC(=O)CNC(=O)[C@H](CCC(=O)O)NC(=O)[C@H](C)NC(=O)[C@@H](N)Cc1c[nH]cn1)[C@@H](C)O)[C@@H](C)O)C(C)C)C(=O)N[C@@H](C)C(=O)N[C@@H](Cc1c[nH]c2ccccc12)C(=O)N[C@@H](CC(C)C)C(=O)N[C@H](C(=O)N[C@@H](CCCCN)C(=O)NCC(=O)N[C@@H](CCCNC(=N)N)C(N)=O)C(C)C,,,,Active,,,,,,,,,,
